ChEMBL document CHEMBL1949526, “Cyclic hydroxyamidines as amide isosteres: discovery of oxadiazolines and oxadiazines as potent and highly efficacious γ-secretase modulators in vivo” (J Med Chem, 2012)

What was measured:
Rattus norvegicus [1] = test: Antialzheimer activity in CD rat assessed as reduction in amyloid beta40 level in CSF at 3 mg/kg, po after 3 hrs by alphaLISA analysis; assay type: functional; design: scale not given: the % may be the effect or the level left
Rattus norvegicus [2] = species: Rattus norvegicus; test: Toxicity in rat assessed as production of goblet cell meta/hyperplasia in ileum at highest tolerable dose; assay type: organism-based; details: in vivo
[3] = Half life in dog at 3 mg/kg, iv; assay type: ADME, organism-based, Canis lupus familiaris; design: dose 3 mg/kg, route intravenous; details: in vivo
Cynomolgus monkey [4] = test: Antialzheimer activity in cynomolgus monkey assessed as reduction in amyloid beta42 level in cortex at 30 mg/kg, po after 4 hrs by alphaLISA analysis; assay type: functional, Macaca fascicularis; design: scale not given: the % may be the effect or the level left
[5] = Volume of distribution at steady state in dog at 3 mg/kg, iv; assay type: ADME, organism-based, Canis lupus familiaris; design: dose 3 mg/kg, route intravenous; details: in vivo, read-out: Vdss
[6] = AUC in dog at 10 mg/kg, po; assay type: ADME, organism-based, Canis lupus familiaris, Plasma; design: dose 10 mg/kg, route oral; details: plasma
[7] = Half life in rat at 3 mg/kg, iv; assay type: ADME, organism-based; design: dose 3 mg/kg, route intravenous; details: in vivo
[8] = Ratio of drug level in brain to plasma in cynomolgus monkey at 30 mg/kg, po after 4 hrs; assay type: ADME, organism-based, Macaca fascicularis; design: dose 30 mg/kg, route oral; details: read-out: BPR
[9] = Plasma concentration in CD rat at 3 mg/kg, po after 3 hrs; assay type: ADME, organism-based; design: dose 3 mg/kg, route oral
[10] = Permeability from apical to basolateral side of human Caco2 cells; assay type: ADME, cell-based; details: Caco-2, read-out: permeability
Cynomolgus monkey [11] = test: Antialzheimer activity in cynomolgus monkey assessed as reduction in amyloid beta42 level in CSF at 30 mg/kg, po after 4 hrs by alphaLISA analysis; assay type: functional, Macaca fascicularis; design: scale not given: the % may be the effect or the level left
Rattus norvegicus [12] = test: Antialzheimer activity in CD rat assessed as reduction in amyloid beta42 level in cortex at 3 mg/kg, po after 3 hrs by alphaLISA analysis; assay type: functional; design: scale not given: the % may be the effect or the level left
Gamma-secretase [13] = test: Modulation of gamma-secretase-mediated cleavage of human APP Swedish and London mutation expressed in HEK293 cells assessed as inhibition of amyloid beta42 production after 5 hrs by sandwich immunoassay; assay type: cell-based
Rattus norvegicus [14] = test: Antialzheimer activity in CD rat assessed as reduction in amyloid beta42 level in plasma at 3 mg/kg, po after 3 hrs by alphaLISA analysis; assay type: functional; design: scale not given: the % may be the effect or the level left
[15] = Ratio of drug level in brain to plasma in CD rat at 3 mg/kg, po after 3 hrs; assay type: ADME, organism-based; design: dose 3 mg/kg, route oral; details: read-out: BPR
[16] = Cmax in rat at 10 mg/kg, po; assay type: ADME, organism-based; design: dose 10 mg/kg, route oral; details: in vivo
[17] = Dissociation constant, pKa of the compound; assay type: physicochemical
Gamma-secretase [18] = test: Modulation of gamma-secretase-mediated cleavage of human APP Swedish and London mutation expressed in HEK293 cells assessed as inhibition of amyloid beta40 production after 5 hrs by sandwich immunoassay; assay type: cell-based
Rattus norvegicus [19] = species: Rattus norvegicus; test: Toxicity in rat assessed as decrease in body weight at highest tolerable dose; assay type: organism-based; details: in vivo
Rattus norvegicus [20] = test: Antialzheimer activity in CD rat assessed as reduction in amyloid beta40 level in cortex at 3 mg/kg, po after 3 hrs by alphaLISA analysis; assay type: functional; design: scale not given: the % may be the effect or the level left
[21] = Oral bioavailability in dog at 10 mg/kg; assay type: ADME, organism-based, Canis lupus familiaris; details: in vivo
[22] = Clearance in rat at 3 mg/kg, iv; assay type: ADME, organism-based; design: dose 3 mg/kg, route intravenous; details: in vivo
[23] = Volume of distribution at steady state in rat at 3 mg/kg, iv; assay type: ADME, organism-based; design: dose 3 mg/kg, route intravenous; details: in vivo, read-out: Vdss
Rattus norvegicus [24] = test: Antialzheimer activity in CD rat assessed as reduction in amyloid beta40 level in plasma at 3 mg/kg, po after 3 hrs by alphaLISA analysis; assay type: functional; design: scale not given: the % may be the effect or the level left
[25] = Half life in monkey at 3 mg/kg, iv; assay type: ADME, organism-based, Macaca mulatta; design: dose 3 mg/kg, route intravenous; details: rhesus monkey, in vivo
Gamma-secretase [26] = test: Modulation of gamma-secretase-mediated cleavage of human APP Swedish and London mutation expressed in HEK293 cells assessed as reduction of total amyloid beta level after 5 hrs by sandwich immunoassay; assay type: cell-based
Rattus norvegicus [27] = species: Rattus norvegicus; test: Toxicity in rat assessed as effect on HES-1 expression in jejunum at highest tolerable dose; assay type: organism-based; details: in vivo
Gamma-secretase [28] = test: Modulation of gamma-secretase-mediated notch signaling in HEK293 cells transfected with human APP Swedish and London mutation and Notch1 with truncated extracellular EGF repeat domain assessed as production of notch intracellular domain by MSD-based sandwich immunoassay; assay type: cell-based
Canis familiaris = species: Canis familiaris; test: Cardiotoxicity in dog assessed as effect on electrocardiographic QTc interval at compound concentration required for pharmacological effect; assay type: toxicity, organism-based, Canis lupus familiaris; details: in vivo
Rattus norvegicus [29] = test: Antialzheimer activity in CD rat assessed as reduction in total amyloid beta level in CSF at 3 mg/kg, po after 3 hrs by alphaLISA analysis; assay type: functional; design: scale not given: the % may be the effect or the level left
Rattus norvegicus [30] = species: Rattus norvegicus; test: Toxicity in rat assessed as effect on adipsin expression in jejunum at highest tolerable dose; assay type: organism-based; details: in vivo
Rattus norvegicus [31] = test: Antialzheimer activity in CD rat assessed as reduction in amyloid beta42 level in CSF at 3 mg/kg, po after 3 hrs by alphaLISA analysis; assay type: functional; design: scale not given: the % may be the effect or the level left
[32] = target: Voltage-gated inwardly rectifying potassium channel KCNH2 (Homo sapiens, UniProt Q12809); test: Inhibition of human ERG by cell based voltage clamp assay
[33] = Clearance in monkey at 3 mg/kg, iv; assay type: ADME, organism-based, Macaca mulatta; design: dose 3 mg/kg, route intravenous; details: rhesus monkey, in vivo
[34] = AUC in monkey at 10 mg/kg, po; assay type: ADME, organism-based, Macaca mulatta; design: dose 10 mg/kg, route oral; details: rhesus monkey, plasma
Rattus norvegicus [35] = species: Rattus norvegicus; test: Toxicity in rat assessed as decrease in thymus size at highest tolerable dose; assay type: organism-based; details: in vivo
[36] = Volume of distribution at steady state in monkey at 3 mg/kg, iv; assay type: ADME, organism-based, Macaca mulatta; design: dose 3 mg/kg, route intravenous; details: rhesus monkey, in vivo, read-out: Vdss
[37] = Efflux ratio of permeability from basolateral to apical side over apical to basolateral side in human Caco2 cells; assay type: ADME, cell-based; details: Caco-2
[38] = Clearance in dog at 3 mg/kg, iv; assay type: ADME, organism-based, Canis lupus familiaris; design: dose 3 mg/kg, route intravenous; details: in vivo
[39] = Cmax in monkey at 10 mg/kg, po; assay type: ADME, organism-based, Macaca mulatta; design: dose 10 mg/kg, route oral; details: rhesus monkey, in vivo
[40] = Plasma concentration in cynomolgus monkey at 30 mg/kg, po after 4 hrs; assay type: ADME, organism-based, Macaca fascicularis; design: dose 30 mg/kg, route oral
[41] = Cmax in dog at 10 mg/kg, po; assay type: ADME, organism-based, Canis lupus familiaris; design: dose 10 mg/kg, route oral; details: in vivo
Rattus norvegicus [42] = test: Antialzheimer activity in CD rat assessed as reduction in total amyloid beta level in plasma at 3 mg/kg, po after 3 hrs by alphaLISA analysis; assay type: functional; design: scale not given: the % may be the effect or the level left
[43] = AUC in rat at 10 mg/kg, po; assay type: ADME, organism-based, Plasma; design: dose 10 mg/kg, route oral; details: plasma
[44] = Oral bioavailability in rat at 10 mg/kg; assay type: ADME, organism-based; details: in vivo
[45] = Oral bioavailability in monkey at 10 mg/kg; assay type: ADME, organism-based, Macaca mulatta; details: rhesus monkey, in vivo

Sequence of Voltage-gated inwardly rectifying potassium channel KCNH2 (Q12809 whole entry): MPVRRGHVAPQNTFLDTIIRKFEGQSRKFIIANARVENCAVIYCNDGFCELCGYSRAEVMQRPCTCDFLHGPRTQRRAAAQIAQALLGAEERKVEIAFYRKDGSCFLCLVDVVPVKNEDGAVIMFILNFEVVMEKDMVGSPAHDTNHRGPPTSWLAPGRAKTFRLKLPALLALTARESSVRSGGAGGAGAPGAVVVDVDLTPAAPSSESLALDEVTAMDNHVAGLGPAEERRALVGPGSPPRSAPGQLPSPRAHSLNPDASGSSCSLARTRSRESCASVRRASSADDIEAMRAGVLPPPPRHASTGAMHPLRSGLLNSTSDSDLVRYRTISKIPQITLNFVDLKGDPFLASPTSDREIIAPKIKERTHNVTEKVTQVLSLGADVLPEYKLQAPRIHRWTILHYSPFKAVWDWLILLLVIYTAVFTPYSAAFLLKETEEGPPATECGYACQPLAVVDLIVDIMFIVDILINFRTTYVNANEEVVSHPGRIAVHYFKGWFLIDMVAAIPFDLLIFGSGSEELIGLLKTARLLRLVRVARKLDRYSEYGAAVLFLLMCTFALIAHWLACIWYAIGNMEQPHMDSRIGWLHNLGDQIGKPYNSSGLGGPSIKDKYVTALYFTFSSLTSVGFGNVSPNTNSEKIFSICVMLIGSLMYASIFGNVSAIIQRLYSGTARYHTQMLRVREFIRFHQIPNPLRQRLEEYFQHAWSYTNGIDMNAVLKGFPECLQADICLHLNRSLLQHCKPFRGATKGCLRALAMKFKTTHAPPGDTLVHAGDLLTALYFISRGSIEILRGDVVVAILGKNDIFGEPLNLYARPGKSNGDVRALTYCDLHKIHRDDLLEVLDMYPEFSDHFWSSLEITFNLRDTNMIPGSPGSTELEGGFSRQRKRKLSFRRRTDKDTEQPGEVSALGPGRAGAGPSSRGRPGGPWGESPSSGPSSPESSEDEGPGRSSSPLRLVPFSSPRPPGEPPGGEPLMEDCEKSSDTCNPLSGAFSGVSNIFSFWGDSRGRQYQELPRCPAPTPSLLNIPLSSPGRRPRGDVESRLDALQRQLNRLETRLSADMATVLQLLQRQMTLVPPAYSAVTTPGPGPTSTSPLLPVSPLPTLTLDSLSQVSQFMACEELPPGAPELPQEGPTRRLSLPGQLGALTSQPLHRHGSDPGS

half-life [3]: 48 min
Vd [5]: 0.6 L/kg
AUC [6]: 27 µM·h
half-life [7]: 210 min
Kp at 4 h [8]: 1.4
concentration at 3 h [9]: 3 µM
Papp A→B [10]: 246 nm/s
IC50 (Gamma-secretase [13]): 0.033 µM
Kp at 3 h [15]: 0.49
Cmax [16]: 19.8 µM
pKa [17]: 2.7
IC50 (Gamma-secretase [18]): 0.123 µM
bioavailability [21]: 69%
clearance [22]: 0.084 L/h/kg
Vd [23]: 0.4 L/kg
half-life [25]: 54 min
IC50 (Gamma-secretase [26]): > 20 µM
IC50 (Gamma-secretase [28]): > 50 µM
clearance [33]: 0.66 L/h/kg
AUC [34]: 11 µM·h
Vd [36]: 0.8 L/kg
efflux ratio [37]: 2
clearance [38]: 0.54 L/h/kg
Cmax [39]: 4.9 µM
concentration at 4 h [40]: 6 µM
Cmax [41]: 7.9 µM
AUC [43]: 265 µM·h
bioavailability [44]: 100%
bioavailability [45]: 34%
SMILES: COc1cc(/C=C2\CCCN3C2=NOC[C@@H]3c2cc(F)c(F)c(F)c2)ccc1-n1cnc(C)c1
Activity (Rattus norvegicus [1]): 74%
Activity (Rattus norvegicus [2]): Non-toxic
Activity (Cynomolgus monkey [4]): 44%
Activity (Cynomolgus monkey [11]): 70%
Activity (Rattus norvegicus [12]): 63%
Activity (Rattus norvegicus [14]): 32%
Activity (Rattus norvegicus [19]): Non-toxic
Activity (Rattus norvegicus [20]): 84%
Activity (Rattus norvegicus [24]): 50%
Activity (Rattus norvegicus [27]): Non-toxic
Activity (Canis familiaris): Non-toxic
Activity (Rattus norvegicus [29]): 88%
Activity (Rattus norvegicus [30]): Non-toxic
Activity (Rattus norvegicus [31]): 65%
IC50 [32]: 1 µM
Activity (Rattus norvegicus [35]): Non-toxic
Activity (Rattus norvegicus [42]): 86%
